# Assay results published in US6610248B1, “Disinfectants” (Lonza AG, priority 1999, dated 2003).
# Key:
# [1] = Determination of foaming (shaken mixing cylinder, foam volume read off); type: physicochemical; conditions: 250 ppm in demineralized water, 20° C.
# Procedure: A 250 ml mixing cylinder was filled with 100 ml of solution. After any foam formed in the course of this had disappeared, the sealed cylinder was shaken vigorously vertically for 15 s (approximately 15×) and then placed on a flat support. The volume of the resultant foam was read off at regular time intervals.
# [2] = test system: Pseudomonas aeruginosa ATCC 15442; experiment: Quantitative suspension test EN 1276; type: cell-based; conditions: contact time 5 min, water hardness 300 mg/kg CaCO3, 20° C.
# Procedure: (§1) As specified by standard EN 1276, the efficacy of N,N-bis (3-aminopropyl)octylamine (according to the invention) and N,N-bis (3-aminopropyl)dodecylamine (comparison) was determined in the presence of albumin for various test microorganisms. [table]
# [3] = test system: Escherichia coli ATCC 10536; experiment: Quantitative suspension test EN 1276; type: cell-based; conditions: contact time 5 min, water hardness 300 mg/kg CaCO3, 20° C.
# Procedure: as §1
# [4] = test system: Enterococcus hirae ATCC 8043; experiment: Quantitative suspension test EN 1276; type: cell-based; conditions: contact time 5 min, water hardness 300 mg/kg CaCO3, 20° C.
# Procedure: as §1
# [5] = test system: Staphylococcus aureus ATCC 6538; experiment: Quantitative suspension test EN 1276; type: cell-based; conditions: contact time 5 min, water hardness 300 mg/kg CaCO3, 20° C.
# Procedure: as §1
# [6] = test system: Mycobacterium terrae ATCC 15755; experiment: Quantitative suspension test using Mycobacterium terrae (Hygiene & Medizin 1997 method); type: cell-based; conditions: 0.3% active compound, 20° C., contact time 15 min
# Procedure: Using the method described in Hygiene & Medizin 1997, 22, pp. 278-283, the activity of N,N-bis(3-amino-propyl)octylamine against Mycobacterium terrae ATCC 15755 was determined under differing organic loads. The concentration of active compound was in each case 0.3%, the temperature 20° C. and the contact time 15 min. The common logarithmic reduction in bacterial count was determined each time.
Structure (SMILES),foam volume after 10 s [1] [mL],foam volume after 60 s [1],concentration for log. reduction >5 ([2]; 0.03% albumin) [%],concentration for log. reduction >5 ([2]; 0.3% albumin) [%],concentration for log. reduction >5 ([3]; 0.03% albumin) [%],concentration for log. reduction >5 ([3]; 0.3% albumin) [%],concentration for log. reduction >5 ([4]; 0.03% albumin) [%],concentration for log. reduction >5 ([4]; 0.3% albumin) [%],concentration for log. reduction >5 ([5]; 0.03% albumin) [%],concentration for log. reduction >5 ([5]; 0.3% albumin) [%],foam volume after a further 10 s ([1]; relative to volume at 10 s),Log reduction in bacterial count ([6]; load: 0.3% albumin),Log reduction in bacterial count ([6]; load: 0.5% sheep's blood),Log reduction in bacterial count ([6]; load: none)
"CCCCCCCCCCCCN(CCCN)CCCN [N,N-bis(3-aminopropyl)dodecylamine, reference compound]",140,120 mL,0.025,0.50,0.025,0.025,0.05,0.05,0.05,0.10,–,–,–,–
"CCCCCCCCN(CCCN)CCCN [N,N-bis(3-aminopropyl)octylamine]",20,virtually completely disappeared,0.05,0.10,0.05,0.05,0.10,0.05,0.10,0.10,decreased to half,4.09,4.48,4.33
